Data reported in patent publication US11834454B2, “Alkynylphenylbenzamide compounds and applications thereof” (SHENZHEN NEWDEL BIOTECH CO., LTD., priority 2021, dated 2023).

Tests used:
TRKA = biological target: T1, TRKA (Homo sapiens, UniProt P04629); test: Z'-LYTE kinase activity detection, TRKA; assay type: biochemical
T1 construct: purchased American Life Technologies PV3144

BaF3-CD74-NTRK1 = biological target: T2, BaF3-CD74-NTRK1 (Homo sapiens, UniProt P04629); test: Cell proliferation inhibition, Ba/F3-TRKs stable strain (CCK-8); assay type: cell-based, mouse; conditions: 72 hours, read-out: cell viability IC50 CD74-NTRK1
T2 construct: fused on or other part: P04233 (HLA class II histocompatibility antigen gamma chain)
Text: (§1) The BaF3 cells (mouse pre-B cells) used in this experiment were purchased from the Japanese Cell Bank. All of the monoclonal stable strains, BaF3-CD74-NTRK1, BaF3-ETV6-NTRK2 and BaF3-ETV6-NTRK3 were constructed by our laboratory, and were identified by experiments such as positive control, protein expression and gene sequencing.
(§2) The brief steps of stable strain construction were as follows: constructed pCDNA3.1(+) plasmid vector carrying genes such as CD74-NTRK1, ETV6-NTRK2, ETV6-NTRK3; the plasmid was electroporated into Ba/F3 cells using Amaxa® Cell Line Nucleofector® Kit V; 48 hours after electroporation, geneticin (G418) with a final concentration of 1000 μg/mL was added to screen for two weeks, and the interleukin 3 (IL3) was removed to continue screening to obtain polyclonal stable strains; and then single clones were selected by limiting dilution method; the stable strains were then identified by the positive drugs, Western Blot (WB), and gene sequencing; the correct monoclonal through identification can be used to study the cell proliferation inhibitory activity of the inhibitors.
(§3) Cell proliferation inhibitory activity study: The cells in logarithmic growth phase were seeded into 96-well plates at 8000-12000 cells/well, and the inhibitors at different concentrations of (0-10 μM) were added the next day, and the culture was continued for 72 hours; then 10 μL of Cell Counting Kit-8 Cell Counting Reagent (CCK-8 Reagent) was added to each well, and continued to incubate for 1-3 hours; then its absorbance at 450 nm and 650 nm were measured with a super microplate reader. The median inhibitory concentration (IC50) was calculated using medical graphing software (GraphPad Prism 8.0.0).

BaF3-ETV6-NTRK2 = biological target: T3, BaF3-ETV6-NTRK2 (Homo sapiens, UniProt Q16620); test: as above; assay type: cell-based, mouse; conditions: 72 hours, read-out: cell viability IC50 ETV6-NTRK2
T3 construct: fused on or other part: P41212 (Transcription factor ETV6)
Text: as §1, §2, §3

TRKB = biological target: T4, TRKB (Homo sapiens, UniProt Q16620); test: Z'-LYTE kinase activity detection, TRKB; assay type: biochemical
T4 construct: purchased American Life Technologies PV3616

TRKC = biological target: T5, TRKC (Homo sapiens, UniProt Q16288); test: Z'-LYTE kinase activity detection, TRKC; assay type: biochemical
T5 construct: purchased American Life Technologies PV3617

BaF3-ETV6-NTRK3 = biological target: T6, BaF3-ETV6-NTRK3 (Homo sapiens, UniProt Q16288); test: Cell proliferation inhibition, Ba/F3-TRKs stable strain (CCK-8); assay type: cell-based, mouse; conditions: 72 hours, read-out: cell viability IC50 ETV6-NTRK3
T6 construct: fused on or other part: P41212 (Transcription factor ETV6)
Text: as §1, §2, §3

T5 sequence (Q16288 32-839): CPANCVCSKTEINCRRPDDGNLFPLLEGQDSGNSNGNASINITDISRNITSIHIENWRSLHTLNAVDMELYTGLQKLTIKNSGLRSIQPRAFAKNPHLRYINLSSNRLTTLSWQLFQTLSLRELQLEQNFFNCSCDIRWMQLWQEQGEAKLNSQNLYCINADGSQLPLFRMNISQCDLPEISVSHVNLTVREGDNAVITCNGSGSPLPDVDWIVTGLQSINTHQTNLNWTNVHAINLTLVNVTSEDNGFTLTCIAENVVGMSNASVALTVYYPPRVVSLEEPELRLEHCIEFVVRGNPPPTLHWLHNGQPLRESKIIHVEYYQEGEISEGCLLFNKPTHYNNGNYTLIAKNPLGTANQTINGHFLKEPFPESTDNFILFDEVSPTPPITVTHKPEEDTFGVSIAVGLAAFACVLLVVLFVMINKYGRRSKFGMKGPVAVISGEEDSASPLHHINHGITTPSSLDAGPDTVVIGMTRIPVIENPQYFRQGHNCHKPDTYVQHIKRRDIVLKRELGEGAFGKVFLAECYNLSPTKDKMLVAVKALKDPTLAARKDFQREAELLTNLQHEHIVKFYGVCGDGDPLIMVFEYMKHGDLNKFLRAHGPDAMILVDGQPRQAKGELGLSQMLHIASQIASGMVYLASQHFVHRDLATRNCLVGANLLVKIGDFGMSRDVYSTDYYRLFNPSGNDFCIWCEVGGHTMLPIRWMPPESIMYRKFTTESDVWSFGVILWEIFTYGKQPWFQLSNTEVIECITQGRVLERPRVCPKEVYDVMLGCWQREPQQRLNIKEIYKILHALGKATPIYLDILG
T4 sequence (Q16620 32-822): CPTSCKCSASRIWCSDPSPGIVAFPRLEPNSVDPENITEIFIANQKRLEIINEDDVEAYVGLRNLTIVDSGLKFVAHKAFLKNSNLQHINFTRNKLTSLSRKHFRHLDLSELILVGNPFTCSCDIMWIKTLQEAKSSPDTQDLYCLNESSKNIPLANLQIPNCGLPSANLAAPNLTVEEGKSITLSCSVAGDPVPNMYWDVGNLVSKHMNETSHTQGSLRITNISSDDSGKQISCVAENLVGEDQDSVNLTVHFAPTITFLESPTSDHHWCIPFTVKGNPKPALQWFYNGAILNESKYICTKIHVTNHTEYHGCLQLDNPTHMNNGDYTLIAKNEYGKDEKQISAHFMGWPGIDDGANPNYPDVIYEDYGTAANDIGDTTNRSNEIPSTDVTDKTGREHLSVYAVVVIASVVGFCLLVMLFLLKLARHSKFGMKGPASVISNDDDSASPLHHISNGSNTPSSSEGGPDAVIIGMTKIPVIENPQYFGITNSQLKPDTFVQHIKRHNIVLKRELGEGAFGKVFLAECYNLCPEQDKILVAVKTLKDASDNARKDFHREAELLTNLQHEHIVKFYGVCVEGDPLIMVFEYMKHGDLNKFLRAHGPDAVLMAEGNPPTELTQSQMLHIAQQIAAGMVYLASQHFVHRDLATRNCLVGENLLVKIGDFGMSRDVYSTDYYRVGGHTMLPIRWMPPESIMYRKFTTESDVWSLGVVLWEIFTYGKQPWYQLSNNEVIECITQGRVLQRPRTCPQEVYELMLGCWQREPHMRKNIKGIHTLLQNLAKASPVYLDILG
T6 sequence (Q16288 whole entry, the tested form may be a part): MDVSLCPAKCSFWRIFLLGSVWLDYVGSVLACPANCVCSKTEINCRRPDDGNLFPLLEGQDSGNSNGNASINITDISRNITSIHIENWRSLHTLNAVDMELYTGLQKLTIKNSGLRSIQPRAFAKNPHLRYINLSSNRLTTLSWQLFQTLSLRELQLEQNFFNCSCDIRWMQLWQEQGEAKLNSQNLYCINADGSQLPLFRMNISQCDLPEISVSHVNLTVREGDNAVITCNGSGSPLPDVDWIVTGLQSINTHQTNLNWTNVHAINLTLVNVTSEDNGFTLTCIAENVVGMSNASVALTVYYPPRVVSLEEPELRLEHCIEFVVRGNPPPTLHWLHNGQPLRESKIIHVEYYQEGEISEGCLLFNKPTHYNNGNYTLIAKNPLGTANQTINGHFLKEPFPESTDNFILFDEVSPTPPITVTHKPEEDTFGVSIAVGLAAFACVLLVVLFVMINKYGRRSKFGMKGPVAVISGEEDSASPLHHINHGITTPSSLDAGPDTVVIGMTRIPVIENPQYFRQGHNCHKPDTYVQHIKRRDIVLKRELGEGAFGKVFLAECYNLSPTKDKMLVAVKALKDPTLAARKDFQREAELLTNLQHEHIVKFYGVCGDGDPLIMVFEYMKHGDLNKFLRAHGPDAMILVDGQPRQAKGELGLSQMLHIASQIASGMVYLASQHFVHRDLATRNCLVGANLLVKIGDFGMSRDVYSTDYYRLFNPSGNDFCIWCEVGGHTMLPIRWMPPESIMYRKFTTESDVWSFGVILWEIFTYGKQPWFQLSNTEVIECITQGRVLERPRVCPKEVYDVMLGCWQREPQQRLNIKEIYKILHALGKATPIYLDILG
T1 sequence (P04629 33-796): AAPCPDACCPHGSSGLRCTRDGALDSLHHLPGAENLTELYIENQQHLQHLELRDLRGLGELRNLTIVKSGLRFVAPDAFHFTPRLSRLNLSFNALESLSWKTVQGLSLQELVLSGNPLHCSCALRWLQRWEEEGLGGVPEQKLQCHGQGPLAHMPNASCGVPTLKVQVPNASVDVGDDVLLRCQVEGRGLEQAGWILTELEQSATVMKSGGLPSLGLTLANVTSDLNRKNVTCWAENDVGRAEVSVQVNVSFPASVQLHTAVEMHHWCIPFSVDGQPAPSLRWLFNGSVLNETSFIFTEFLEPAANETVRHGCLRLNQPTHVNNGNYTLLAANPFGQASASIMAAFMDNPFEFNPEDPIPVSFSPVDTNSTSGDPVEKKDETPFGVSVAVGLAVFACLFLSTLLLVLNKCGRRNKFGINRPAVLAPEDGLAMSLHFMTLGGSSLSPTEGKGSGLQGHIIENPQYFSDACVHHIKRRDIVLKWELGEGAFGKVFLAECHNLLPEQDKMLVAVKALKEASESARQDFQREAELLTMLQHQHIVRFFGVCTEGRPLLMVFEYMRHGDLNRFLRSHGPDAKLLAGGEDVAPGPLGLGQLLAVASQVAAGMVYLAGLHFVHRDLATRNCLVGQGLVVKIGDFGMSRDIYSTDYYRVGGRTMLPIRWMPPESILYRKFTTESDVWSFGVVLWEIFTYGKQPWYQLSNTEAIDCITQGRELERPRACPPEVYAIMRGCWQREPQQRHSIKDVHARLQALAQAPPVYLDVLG
T3 sequence (Q16620 538-822 limits assumed): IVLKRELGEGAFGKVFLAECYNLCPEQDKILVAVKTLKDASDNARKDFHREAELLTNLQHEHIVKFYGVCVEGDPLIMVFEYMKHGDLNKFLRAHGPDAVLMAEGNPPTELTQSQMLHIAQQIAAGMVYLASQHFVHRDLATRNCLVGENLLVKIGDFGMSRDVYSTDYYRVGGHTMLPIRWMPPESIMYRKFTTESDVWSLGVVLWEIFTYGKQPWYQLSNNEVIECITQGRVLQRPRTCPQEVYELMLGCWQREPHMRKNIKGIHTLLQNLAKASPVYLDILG
T2 sequence (P04629 510-796 limits assumed): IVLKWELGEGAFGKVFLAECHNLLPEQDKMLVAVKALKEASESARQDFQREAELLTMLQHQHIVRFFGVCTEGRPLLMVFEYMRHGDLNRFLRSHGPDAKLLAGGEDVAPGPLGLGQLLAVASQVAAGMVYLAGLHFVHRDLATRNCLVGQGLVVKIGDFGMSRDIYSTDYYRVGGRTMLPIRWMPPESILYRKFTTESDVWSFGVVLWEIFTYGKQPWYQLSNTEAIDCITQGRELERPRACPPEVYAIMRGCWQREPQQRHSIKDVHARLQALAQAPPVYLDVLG

SMILES | IC50 (TRKA) [nM] | IC50 (TRKB) [nM] | IC50 (TRKC) [nM] | IC50 (BaF3-CD74-NTRK1) [nM] | IC50 (BaF3-ETV6-NTRK2) [nM] | IC50 (BaF3-ETV6-NTRK3) [nM]
Cc1c(C#Cc2cnc3cccnn23)cccc1C(=O)Nc1cccc(C(F)(F)F)c1 [XS2-106] | 100 to 1000 | > 1000 | – | 100 to 1000 | 100 to 1000 | –
Cc1c(C#Cc2cnc3cccnn23)cccc1C(=O)Nc1cc(F)cc(C(F)(F)F)c1 [XS2-109, N-(3-FLUORO-5-(TRIFLUOROMETHYL)PHENYL)-3-(IMIDAZO[1,2-B]PYRIDAZIN-3-YLETHYNYL)-2-METHYLBENZENE FORMAMIDE] | 100 to 1000 | > 1000 | 100 to 1000 | – | – | –
Cc1c(C#Cc2cnc3cccnn23)cccc1C(=O)Nc1cc(Cl)cc(C(F)(F)F)c1 [XS2-112, N-(3-CHLORO-5-(TRIFLUOROMETHYL)PHENYL)-3-(IMIDAZO[1,2-B]PYRIDAZIN-3-YLETHYNYL)-2-METHYLBENZENE FORMAMIDE] | 100 to 1000 | 100 to 1000 | 100 to 1000 | 100 to 1000 | 100 to 1000 | 100 to 1000
Cc1c(C#Cc2cnc3ncccn23)cccc1C(=O)Nc1cc(CN2CCN(C)CC2)cc(C(F)(F)F)c1 [XS2-161] | 100 to 1000 | > 1000 | 100 to 1000 | > 1000 | > 1000 | > 1000
Cc1c(C#Cc2cnc3ccc(N4CCOCC4)nn23)cccc1C(=O)Nc1cccc(C(F)(F)F)c1 [XS3-23, 2-METHYL-3-((6-MORPHOLINIMIDAZO[1,2-B]PYRIDAZIN-3-YL)ETHYNYL)-N-(3-(TRIFLUOROMETHYL)BENZENE BASE) BENZAMIDE] | 10 to 100 | 10 to 100 | 10 to 100 | 10 to 100 | 10 to 100 | 10 to 100
Cc1c(C#Cc2cnc3ccc(N4CC[C@H](O)C4)nn23)cccc1C(=O)Nc1cccc(C(F)(F)F)c1 [XS3-35, (S)-3-((6-(3-HYDROXYPYRROLIDIN-1-YL)IMIDAZO[1,2-B]PYRIDAZIN-3-YL)ETHYNYL)-2-METHYL-N-(3-(TRIFLUOROMETHYL)PHENYL)BENZAMIDE] | < 10 | 10 to 100 | < 10 | 10 to 100 | 100 to 1000 | 10 to 100
Cc1c(C#Cc2cnc3ccc(N4CC[C@H](O)C4)nn23)cccc1C(=O)Nc1cc(CN2CCN(C)CC2)cc(C(F)(F)F)c1 [XS3-36, (S)-3-((6-(3-HYDROXYPYRROLIDIN-1-YL)IMIDAZO[1,2-B]PYRIDAZIN-3-YL)ETHYNYL)-2-METHYL-N-(3-((4-METHYLPIPERAZIN-1-YL)METHYL)-5-(TRIFLUOROMETHYL)PHENYL)BENZAMIDE] | 10 to 100 | 10 to 100 | < 10 | 10 to 100 | 10 to 100 | 10 to 100
Cc1c(C#Cc2cnc3ccc(N4CCN(C)CC4)nn23)cccc1C(=O)Nc1cc(Cl)cc(C(F)(F)F)c1 [XS3-51, N-(3-CHLORO-5-(TRIFLUOROMETHYL)PHENYL)-2-METHYL-3-((6-(4-METHYLPIPERAZIN-1-YL)IMIDAZO[1,2-B]PYRIDAZIN-3-YL)ETHYNYL)BENZAMIDE] | 10 to 100 | 10 to 100 | < 10 | 100 to 1000 | 100 to 1000 | 10 to 100
Cc1c(C#Cc2cnc3ccc(N4CCN(C)[C@H](C)C4)nn23)cccc1C(=O)Nc1cc(Cl)cc(C(F)(F)F)c1 [XS3-52, (R)—N-(3-CHLORO-5-(TRIFLUOROMETHYL)PHENYL)-3-((6-(3,4-DIMETHYLPIPERAZIN-1-YL)IMIDAZO[1,2-B]PYRIDAZIN-3-YL)ETHYNYL)-2-METHYLBENZAMIDE] | 10 to 100 | 10 to 100 | 10 to 100 | 10 to 100 | 100 to 1000 | 10 to 100
Cc1c(C#Cc2cnc3ccc(NCCN4CCOCC4)nn23)cccc1C(=O)Nc1cc(Cl)cc(C(F)(F)F)c1 [XS3-53, N-(3-CHLORO-5-(TRIFLUOROMETHYL)PHENYL)-2-METHYL-3-((6-((2-MORPHOLINOETHYL)AMINO)IMIDAZO[1,2-B]PYRIDAZIN-3-YL)ETHYNYL)BENZAMIDE] | < 10 | 10 to 100 | < 10 | 10 to 100 | 100 to 1000 | 10 to 100
CC(=O)N1CCN(c2ccc3ncc(C#Cc4cccc(C(=O)Nc5cc(Cl)cc(C(F)(F)F)c5)c4C)n3n2)CC1 [XS3-54, 3-((6-(4-ACETYLPIPERAZIN-1-YL)IMIDAZO[1,2-B]PYRIDAZIN-3-YL)ETHYNYL)-N-(3-CHLORO-5-(TRIFLUORO) METHYL)PHENYL)-2-METHYLBENZAMIDE] | < 10 | 10 to 100 | < 10 | 10 to 100 | 10 to 100 | 10 to 100
Cc1c(C#Cc2cnc3ccc(N4CCC(N(C)C)CC4)nn23)cccc1C(=O)Nc1cc(Cl)cc(C(F)(F)F)c1 [XS3-56, N-(3-CHLORO-5-(TRIFLUOROMETHYL)PHENYL)-3-((6-(4-(DIMETHYLAMINO)PIPERIDIN-1-YL)IMIDAZO[1,2-B]PYRIDAZIN-3-YL)ETHYNYL)-2-METHYLBENZAMIDE] | 10 to 100 | 10 to 100 | 10 to 100 | 100 to 1000 | 100 to 1000 | 10 to 100
Cc1c(C#Cc2cnc3ccc(N4CCC(N(C)C)CC4)nn23)cccc1C(=O)Nc1cccc(C(F)(F)F)c1 [XS3-57, 3-((6-(4-(DIMETHYLAMINO)PIPERIDIN-1-YL)IMIDAZO[1,2-B]PYRIDAZIN-3-YL)ETHYNYL)-2-METHYL-N-(3-(TRIFLUOROMETHYL)PHENYL)BENZAMIDE] | < 10 | < 10 | < 10 | 10 to 100 | 100 to 1000 | 10 to 100

Second part, led by results:

IC50 (TRKA) [nM] | IC50 (TRKB) [nM] | IC50 (TRKC) [nM] | SMILES | IC50 (BaF3-CD74-NTRK1) [nM] | IC50 (BaF3-ETV6-NTRK2) [nM] | IC50 (BaF3-ETV6-NTRK3) [nM]
10 to 100 | 10 to 100 | 10 to 100 | Cc1c(C#Cc2cnc3ccc(N4CC[C@H](O)C4)nn23)cccc1C(=O)Nc1cc(Cl)cc(C(F)(F)F)c1 [XS3-58, (S)—N-(3-CHLORO-5-(TRIFLUOROMETHYL)PHENYL)-3-((6-(3-HYDROXYPYRROLIDIN-1-YL)IMIDAZO[1,2-B]PYRIDAZIN-3-YL)ETHYNYL)-2-METHYLBENZAMIDE] | 100 to 1000 | 100 to 1000 | 10 to 100
10 to 100 | 10 to 100 | 10 to 100 | Cc1c(C#Cc2cnc3ccc(N4CCOCC4)nn23)cccc1C(=O)Nc1cc(Cl)cc(C(F)(F)F)c1 [XS3-61, N-(3-CHLORO-5-(TRIFLUOROMETHYL)PHENYL)-2-METHYL-3-((6-MORPHOLINIMIDAZO[1,2-B]PYRIDAZINE-3-YL)ETHYNYL)BENZAMIDE] | 10 to 100 | – | 10 to 100
< 10 | 10 to 100 | < 10 | Cc1c(C#Cc2cnc3ccc(N4CCC(N(C)C)CC4)nn23)cccc1C(=O)Nc1cc(CN2CCN(C)CC2)cc(C(F)(F)F)c1 [XS3-67, 3-((6-(4-(DIMETHYLAMINO)PIPERIDIN-1-YL)IMIDAZO[1,2-B]PYRIDAZIN-3-YL)ETHYNYL)-2-METHYL-N-(3-((4-METHYLPIPERAZIN-1-YL)METHYL)-5-(TRIFLUOROMETHYL)PHENYL)BENZAMIDE] | 100 to 1000 | 100 to 1000 | 10 to 100
< 10 | < 10 | < 10 | Cc1cn(-c2cc(NC(=O)c3cccc(C#Cc4cnc5ccc(N6CCOCC6)nn45)c3C)cc(C(F)(F)F)c2)cn1 [XS3-91] | 10 to 100 | 10 to 100 | < 10
10 to 100 | 10 to 100 | < 10 | Cc1c(C#Cc2cnc3ccc(N4CCC(N5CCOCC5)CC4)nn23)cccc1C(=O)Nc1cc(Cl)cc(C(F)(F)F)c1 [XS3-130, N-(3-CHLORO-5-(TRIFLUOROMETHYL)PHENYL)-2-METHYL-3-((6-(4-MORPHOLINPIPERIDIN-1-YL)IMIDAZO[1,2-B]PYRIDAZIN-3-YL)ETHYNYL)BENZAMIDE] | 10 to 100 | 10 to 100 | 10 to 100
10 to 100 | 10 to 100 | 10 to 100 | Cc1c(C#Cc2cnc3ccc(N4CCC(N)CC4)nn23)cccc1C(=O)Nc1cc(Cl)cc(C(F)(F)F)c1 [XS3-131, 3-((6-(4-AMINOPIPERIDIN-1-YL)IMIDAZO[1,2-B]PYRIDAZIN-3-YL)ETHYNYL)-N-(3-CHLORO-5-(TRIFLUOROMETHYL)PHENYL)-2-METHYLBENZAMIDE] | 100 to 1000 | 100 to 1000 | 10 to 100
10 to 100 | – | 10 to 100 | Cc1c(C#Cc2cnc3ccc(N4CCOCC4)nn23)cccc1C(=O)Nc1cc(F)cc(C(F)(F)F)c1 [XS4-80] | 10 to 100 | 10 to 100 | 10 to 100
10 to 100 | – | 10 to 100 | Cc1cc(NC(=O)c2cccc(C#Cc3cnc4ccc(N5CCOCC5)nn34)c2C)cc(C(F)(F)F)c1 [XS4-81] | 10 to 100 | 10 to 100 | < 10
